Assay results as given in ChEMBL document CHEMBL5137093, “Improving Drug Delivery While Tailoring Prodrug Activation to Modulate Cmax and Cmin by Optimization of (Carbonyl)oxyalkyl Linker-Based Prodrugs of Atazanavir” (J Med Chem, 2022).

Tests used:
[1] = Tmax in Sprague-Dawley rat at 30 mg/kg,po measured upto 24 hrs by UPLC-MS/MS analysis; format: ADME, organism-based; details: in vivo
[2] = AUClast in Sprague-Dawley rat at 3 mg/kg,po measured upto 24 hrs by UPLC-MS/MS analysis; format: ADME, organism-based; set-up: time < 24 hrs, dose 3 mg/kg, route po; details: in vivo
[3] = Cmax in Sprague-Dawley rat at 1 mg/kg,iv measured upto 24 hrs by UPLC-MS/MS analysis; format: ADME, organism-based; set-up: dose 1 mg/kg, time < 24 hrs, route iv; details: in vivo
[4] = AUClast in Sprague-Dawley rat at 1 mg/kg,iv measured upto 24 hrs by UPLC-MS/MS analysis; format: ADME, organism-based; set-up: time < 24 hrs, dose 1 mg/kg, route iv; details: in vivo
[5] = Aqueous solubility of compound at pH 6.5 by UPLC analysis; format: physicochemical; details: aqueous medium, read-out: solubility
[6] = molecular target: Voltage-gated inwardly rectifying potassium channel KCNH2 (Homo sapiens, UniProt Q12809); assay: Inhibition of human ERG by patch-clamp assay; format: toxicity
Voltage-gated inwardly rectifying potassium channel KCNH2, sequence (Q12809 whole entry): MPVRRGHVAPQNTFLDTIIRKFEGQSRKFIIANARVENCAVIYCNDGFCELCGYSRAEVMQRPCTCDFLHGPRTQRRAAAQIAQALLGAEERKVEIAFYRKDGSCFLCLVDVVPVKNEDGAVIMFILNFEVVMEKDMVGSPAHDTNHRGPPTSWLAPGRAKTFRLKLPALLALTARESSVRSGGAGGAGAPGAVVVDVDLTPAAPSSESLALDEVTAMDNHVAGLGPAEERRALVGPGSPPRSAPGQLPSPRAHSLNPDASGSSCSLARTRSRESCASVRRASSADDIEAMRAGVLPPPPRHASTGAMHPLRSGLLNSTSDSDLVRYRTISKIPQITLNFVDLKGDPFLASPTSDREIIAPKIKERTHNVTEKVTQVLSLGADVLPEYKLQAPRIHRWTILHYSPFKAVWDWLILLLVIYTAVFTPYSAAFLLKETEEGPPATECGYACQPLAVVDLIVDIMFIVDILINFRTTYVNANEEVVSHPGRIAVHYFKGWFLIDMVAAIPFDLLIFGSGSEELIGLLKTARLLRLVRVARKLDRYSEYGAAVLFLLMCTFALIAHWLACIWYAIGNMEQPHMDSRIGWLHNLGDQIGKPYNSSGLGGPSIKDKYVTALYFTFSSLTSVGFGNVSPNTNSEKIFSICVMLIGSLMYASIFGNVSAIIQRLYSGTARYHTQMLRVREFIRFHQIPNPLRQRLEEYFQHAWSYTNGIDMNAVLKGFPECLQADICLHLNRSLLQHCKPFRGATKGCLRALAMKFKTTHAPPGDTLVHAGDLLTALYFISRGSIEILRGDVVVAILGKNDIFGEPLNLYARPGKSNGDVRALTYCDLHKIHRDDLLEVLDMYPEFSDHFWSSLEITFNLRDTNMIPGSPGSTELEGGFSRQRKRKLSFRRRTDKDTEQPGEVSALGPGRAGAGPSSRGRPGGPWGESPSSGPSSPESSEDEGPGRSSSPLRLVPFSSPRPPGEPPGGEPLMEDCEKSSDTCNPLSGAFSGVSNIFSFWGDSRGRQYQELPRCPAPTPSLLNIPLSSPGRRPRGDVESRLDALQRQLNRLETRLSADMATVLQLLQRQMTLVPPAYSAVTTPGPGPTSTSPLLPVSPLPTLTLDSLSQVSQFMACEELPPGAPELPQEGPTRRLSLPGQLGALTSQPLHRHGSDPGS

[7] = Aqueous solubility of compound at pH 4 by UPLC analysis; format: physicochemical; details: aqueous medium, read-out: solubility
[8] = Cmin in Sprague-Dawley rat at 1 mg/kg,iv measured after 24 hrs by UPLC-MS/MS analysis; format: ADME, organism-based; details: in vivo, read-out: Cmin
[9] = Ratio of Cmax/Cmin in Sprague-Dawley rat at 3 mg/kg,po measured after 24 hrs by UPLC-MS/MS analysis; format: ADME, organism-based; details: in vivo
[10] = Volume of distribution at steady state in Sprague-Dawley rat at 1 mg/kg,iv measured upto 24 hrs by UPLC-MS/MS analysis; format: ADME, organism-based; details: in vivo, read-out: Vdss
[11] = Cmax in Sprague-Dawley rat at 30 mg/kg,po measured upto 24 hrs by UPLC-MS/MS analysis; format: ADME, organism-based; set-up: time < 24 hrs, dose 30 mg/kg, route po; details: in vivo
[12] = AUClast in Sprague-Dawley rat at 30 mg/kg,po measured upto 24 hrs by UPLC-MS/MS analysis; format: ADME, organism-based; set-up: time < 24 hrs, dose 30 mg/kg, route po; details: in vivo
[13] = Clearance in Sprague-Dawley rat at 1 mg/kg,iv measured upto 24 hrs by UPLC-MS/MS analysis; format: ADME, organism-based; details: in vivo
[14] = Ratio of Cmax/Cmin in Sprague-Dawley rat at 1 mg/kg,iv measured after 24 hrs by UPLC-MS/MS analysis; format: ADME, organism-based; details: in vivo
[15] = Cmax in Sprague-Dawley rat at 3 mg/kg,po measured upto 24 hrs by UPLC-MS/MS analysis; format: ADME, organism-based; set-up: dose 3 mg/kg, time < 24 hrs, route po; details: in vivo
[16] = Half life in Sprague-Dawley rat at 1 mg/kg,iv measured upto 24 hrs by UPLC-MS/MS analysis; format: ADME, organism-based; details: in vivo
[17] = Tmax in Sprague-Dawley rat at 3 mg/kg,po measured upto 24 hrs by UPLC-MS/MS analysis; format: ADME, organism-based; details: in vivo

SMILES: COC(=O)N[C@H](C(=O)N[C@@H](Cc1ccccc1)[C@@H](O)CN(Cc1ccc(-c2ccccn2)cc1)NC(=O)[C@@H](NC(=O)OC)C(C)(C)C)C(C)(C)C [ATAZANAVIR]
- Tmax [1]: 3 h
- AUC(0-t) at 24 h [2]: 0.384 µM·h
- Cmax [3]: 2510 nM
- AUC(0-t) at 24 h [4]: 0.636 µM·h
- solubility [5]: < 1 µg/mL
- IC50 [6]: ≥ 30 µM
- solubility [7]: < 1 µg/mL
- concentration at 24 h [8]: 0.28 nM
- Ratio [9]: 1064
- Vd [10]: 1.5 L/kg
- Cmax [11]: 5110 nM
- AUC(0-t) at 24 h [12]: 20.9 µM·h
- clearance [13]: 38.7 mL/min/kg
- Ratio [14]: 8978.6
- Cmax [15]: 266 nM
- half-life [16]: 7 h
- Tmax [17]: 0.5 h
